Source: US9856220B2 (AbbVie Deutschland GmbH & Co. KG, priority 2011, dated 2018)
Counter-ions that a name gives are not always drawn.

Target: PDE10A (Homo sapiens (Human), UniProt Q9Y233)
Assay: Measurement of PDE activity (recombinant PDE, cAMP HTRF)
Format: biochemical
Conditions: 20 nM cyclic nucleotide substrate, 60 minutes at 29 C
Procedure: a) Measurement of PDE Activity
The recombinant PDE proteins are used in in vitro enzymatic reaction for measurement of PDE activity. These recombinant proteins, including PDE10A (human, rat and mouse PDE10) and isoforms of PDEs 1, 3, 4, and 5, were purchased from commercial vendor BPS Bioscience. The enzymatic activity of PDEs was determined by cAMP measurement kit from CisBio (IBA) using HTRF technology.
The PDE enzymatic reaction was carried out in assay buffer (20 mM Tris-HCl pH7.5, 10 mM MgCl2, 0.1% bovine serum albumin) containing enzyme and substrate. […] The substrate cyclic nucleotide (cAMP or cGMP) concentration used in the assay was 20 nM for PDE10, and 100 nM for other PDEs. The inhibitory effect of compound was determined by incubating various concentration of inhibitor in the enzymatic assay. […] Next, the compound at varying concentration was mixed with PDE enzyme. The reaction was initiated by addition of cyclic nucleotide substrate, and incubated for 60 minutes at 29 C. The reaction was stopped by addition of lysis buffer from assay kit. The cAMP-d2 and anti-cAMP cryptate in the lysis buffer detected the level of cAMP left from the PDE hydrolysis reaction. […] Thus, IC50 value of inhibitor can be obtained by plotting inhibitor concentration against PDE activity at that concentration.

Chain of PDE10A (Q9Y233 whole entry, species assumed): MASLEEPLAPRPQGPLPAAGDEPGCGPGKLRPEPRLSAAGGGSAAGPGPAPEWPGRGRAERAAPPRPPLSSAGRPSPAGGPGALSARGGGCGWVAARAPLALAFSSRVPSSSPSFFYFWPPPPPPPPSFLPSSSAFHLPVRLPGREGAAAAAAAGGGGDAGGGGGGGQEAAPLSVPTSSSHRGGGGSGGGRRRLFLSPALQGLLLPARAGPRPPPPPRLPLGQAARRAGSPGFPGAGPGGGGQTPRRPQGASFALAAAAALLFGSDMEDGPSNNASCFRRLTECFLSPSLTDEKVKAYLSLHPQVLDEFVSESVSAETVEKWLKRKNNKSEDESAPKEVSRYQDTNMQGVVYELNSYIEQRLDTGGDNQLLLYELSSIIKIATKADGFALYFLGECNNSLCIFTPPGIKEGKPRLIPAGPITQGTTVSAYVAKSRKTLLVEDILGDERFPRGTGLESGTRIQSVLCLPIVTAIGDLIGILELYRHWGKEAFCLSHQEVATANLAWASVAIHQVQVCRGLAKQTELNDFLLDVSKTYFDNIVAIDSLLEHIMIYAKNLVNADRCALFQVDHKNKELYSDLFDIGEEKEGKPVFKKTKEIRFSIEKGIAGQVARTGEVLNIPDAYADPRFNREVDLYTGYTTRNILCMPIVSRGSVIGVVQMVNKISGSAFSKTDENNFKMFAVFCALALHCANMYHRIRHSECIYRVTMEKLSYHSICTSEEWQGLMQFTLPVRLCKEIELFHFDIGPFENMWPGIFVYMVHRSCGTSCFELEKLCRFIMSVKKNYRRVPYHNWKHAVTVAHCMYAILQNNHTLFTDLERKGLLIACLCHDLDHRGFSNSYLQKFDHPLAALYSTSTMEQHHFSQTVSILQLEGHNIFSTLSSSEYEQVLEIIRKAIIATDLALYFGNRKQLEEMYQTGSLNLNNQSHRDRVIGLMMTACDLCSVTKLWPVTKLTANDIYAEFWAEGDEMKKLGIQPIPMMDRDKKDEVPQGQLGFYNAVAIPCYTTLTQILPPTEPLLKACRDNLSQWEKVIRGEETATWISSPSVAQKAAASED

IC50	SMILES
100 to 200 nM	CCn1cc(C(=O)NCc2ccccc2C)c2cc(OC)c(OC)cc2c1=O [Example 154, 2-Ethyl-6,7-dimethoxy-N-(2-methylbenzyl)-1-oxo-1,2-dihydroisoquinoline-4-carboxamide]
200 to 500 nM	CCn1cc(C(=O)Nc2ccc(F)cc2)c2cc(OC)c(OC)cc2c1=O [Example 156, 2-Ethyl-N-(4-fluorophenyl)-6,7-dimethoxy-1-oxo-1,2-dihydroisoquinoline-4-carboxamide]
200 to 500 nM	CCn1cc(C(=O)NCc2ccccc2Cl)c2cc(OC)c(OC)cc2c1=O [Example 162, N-(2-Chlorobenzyl)-2-ethyl-6,7-dimethoxy-1-oxo-1,2-dihydroisoquinoline-4-carboxamide]
200 to 500 nM	CCn1cc(C(=O)Nc2ccncc2)c2cc(OC)c(OC)cc2c1=O [Example 164, 2-Ethyl-6,7-dimethoxy-1-oxo-N-(pyridin-4-yl)-1,2-dihydroisoquinoline-4-carboxamide]
200 to 500 nM	CCn1cc(C(=O)NC2CCc3ccc(C)cc32)c2cc(OC)c(OC)cc2c1=O (stereo not drawn) [Example 167, 2-Ethyl-6,7-dimethoxy-N-(6-methyl-2,3-dihydro-1H-inden-1-yl)-1-oxo-1,2-dihydroisoquinoline-4-carboxamide]
200 to 500 nM	CCn1cc(C(=O)NCc2ccccc2CN2CCOCC2)c2cc(OC)c(OC)cc2c1=O [Example 168, 2-Ethyl-6,7-dimethoxy-N-(2-(morpholinomethyl)benzyl)-1-oxo-1,2-dihydroiso-quinoline-4-carboxamide]
200 to 500 nM	CCn1cc(C(=O)NC2CCc3cc(Cl)ccc32)c2cc(OC)c(OC)cc2c1=O (stereo not drawn) [Example 169, N-(5-Chloro-2,3-dihydro-1H-inden-1-yl)-2-ethyl-6,7-dimethoxy-1-oxo-1,2-dihydroisoquinoline-4-carboxamide]
200 to 500 nM	CCn1cc(C(=O)NC2CCc3c(F)cccc32)c2cc(OC)c(OC)cc2c1=O (stereo not drawn) [Example 173, 2-Ethyl-N-(4-fluoro-2,3-dihydro-1H-inden-1-yl)-6,7-dimethoxy-1-oxo-1,2-dihydroisoquinoline-4-carboxamide]
200 to 500 nM	CCn1cc(C(=O)NC2CCc3c(C)cccc32)c2cc(OC)c(OC)cc2c1=O (stereo not drawn) [Example 174, 2-Ethyl-6,7-dimethoxy-N-(4-methyl-2,3-dihydro-1H-inden-1-yl)-1-oxo-1,2-dihydroisoquinoline-4-carboxamide]
200 to 500 nM	CCn1cc(C(=O)NC2CCc3cc(C)ccc32)c2cc(OC)c(OC)cc2c1=O (stereo not drawn) [Example 175, 2-Ethyl-6,7-dimethoxy-N-(5-methyl-2,3-dihydro-1H-inden-1-yl)-1-oxo-1,2-dihydroisoquinoline-4-carboxamide]
200 to 500 nM	CCn1cc(C(=O)NC2CCc3ccc(OC)cc32)c2cc(OC)c(OC)cc2c1=O (stereo not drawn) [Example 176, 2-Ethyl-6,7-dimethoxy-N-(6-methoxy-2,3-dihydro-1H-inden-1-yl)-1-oxo-1,2-dihydroisoquinoline-4-carboxamide]
200 to 500 nM	CCn1cc(C(=O)NC2CCc3cc(F)ccc32)c2cc(OC)c(OC)cc2c1=O (stereo not drawn) [Example 177, 2-Ethyl-N-(5-fluoro-2,3-dihydro-1H-inden-1-yl)-6,7-dimethoxy-1-oxo-1,2-dihydroisoquinoline-4-carboxamide]
100 to 200 nM	CCCCNC(=O)c1cn(CCc2ccc3ccccc3n2)c(=O)c2cc(OC)ccc12 [Example 182, 7-Methoxy-1-oxo-2-(2-quinolin-2-yl-ethyl)-1,2-dihydro-isoquinoline-4-carboxylic acid butylamide]
200 to 500 nM	CCC(CC)n1cc(C(=O)NCc2ccccc2CN(C)C)c2cc(OC)c(OC)cc2c1=O [Example 187, 2-(1-Ethyl-propyl)-6,7-dimethoxy-1-oxo-1,2-dihydro-isoquinoline-4-carboxylic acid 2-dimethylaminomethyl-benzylamide hydrochloride]
100 to 200 nM	CCC(CC)n1cc(C(=O)NCc2cc(F)cc(F)c2)c2cc(OC)c(OC)cc2c1=O [Example 188, 2-(1-Ethyl-propyl)-6,7-dimethoxy-1-oxo-1,2-dihydro-isoquinoline-4-carboxylic acid 3,5-difluoro-benzylamide]
100 to 200 nM	CCC(CC)n1cc(C(=O)NCc2ccc(F)c(F)c2)c2cc(OC)c(OC)cc2c1=O [Example 189, 2-(1-Ethyl-propyl)-6,7-dimethoxy-1-oxo-1,2-dihydro-isoquinoline-4-carboxylic acid 3,4-difluoro-benzylamide]
200 to 500 nM	CCC(CC)n1cc(C(=O)N[C@@H]2CCc3ccccc32)c2cc(OC)c(OC)cc2c1=O [Example 191, 2-(1-Ethyl-propyl)-6,7-dimethoxy-1-oxo-1,2-dihydro-isoquinoline-4-carboxylic acid (R)-indan-1-ylamide]

IC50	SMILES
< 100 nM	CCC(CC)n1cc(C(=O)NC2CCc3sccc32)c2cc(OC)c(OC)cc2c1=O (stereo not drawn) [Example 193, 2-(1-Ethyl-propyl)-6,7-dimethoxy-1-oxo-1,2-dihydro-isoquinoline-4-carboxylic acid (5,6-dihydro-4H-cyclopenta[b]thiophen-4-yl)-amide]
< 100 nM	CCC(CC)n1cc(C(=O)NC2COc3ccccc32)c2cc(OC)c(OC)cc2c1=O (stereo not drawn) [Example 194, 2-(1-Ethyl-propyl)-6,7-dimethoxy-1-oxo-1,2-dihydro-isoquinoline-4-carboxylic acid (2,3-dihydro-benzofuran-3-yl)-amide]
< 100 nM	CCC(CC)n1cc(C(=O)NC2CSc3ccccc32)c2cc(OC)c(OC)cc2c1=O (stereo not drawn) [Example 216, 2-(1-Ethyl-propyl)-6,7-dimethoxy-1-oxo-1,2-dihydro-isoquinoline-4-carboxylic acid (2,3-dihydro-benzo[b]thiophen-3-yl)-amide]
100 to 200 nM	CCn1cc(C(=O)NC2CCc3sccc32)c2cnc(OC)cc2c1=O (stereo not drawn) [Example 230, 2-Ethyl-7-methoxy-1-oxo-1,2-dihydro-[2,6]naphthyridine-4-carboxylic acid (5,6-dihydro-4H-cyclopenta[b]thiophen-4-yl)-amide]
100 to 200 nM	CCC(CC)n1nc(C(=O)NC2CCc3ncccc32)c2cc(OC)c(OC)cc2c1=O (stereo not drawn) [Example 233, 3-(1-Ethyl-propyl)-6,7-dimethoxy-4-oxo-3,4-dihydro-phthalazine-1-carboxylic acid (6,7-dihydro-5H-[1]pyrindin-5-yl)-amide]
100 to 200 nM	CCC(CC)n1cc(C(=O)NCc2ccc(C)s2)c2cc(OC)c(OC)cc2c1=O [Example 237, 6,7-Dimethoxy-N-((5-methylthiophen-2-yl)methyl)-1-oxo-2-(pentan-3-yl)-1,2-dihydroisoquinoline-4-carboxamide]
200 to 500 nM	CCC(CC)n1cc(C(=O)NCc2cc(C)sc2C)c2cc(OC)c(OC)cc2c1=O [Example 242, N-((2,5-dimethylthiophen-3-yl)methyl)-6,7-dimethoxy-1-oxo-2-(pentan-3-yl)-1,2-dihydroisoquinoline-4-carboxamide]
200 to 500 nM	CCC(CC)n1cc(C(=O)NCc2scnc2C)c2cc(OC)c(OC)cc2c1=O [Example 249, 6,7-Dimethoxy-N-((4-methylthiazol-5-yl)methyl)-1-oxo-2-(pentan-3-yl)-1,2-dihydroisoquinoline-4-carboxamide]
100 to 200 nM	CCC(CC)n1cc(C(=O)NC2CCc3cc(F)ccc32)c2cc(OC)c(OC)cc2c1=O (stereo not drawn) [Example 252, N-(5-Fluoro-2,3-dihydro-1H-inden-1-yl)-6,7-dimethoxy-1-oxo-2-(pentan-3-yl)-1,2-dihydroisoquinoline-4-carboxamide]
< 100 nM	CCC(CC)n1cc(C(=O)NC2CCc3cc(C)ccc32)c2cc(OC)c(OC)cc2c1=O (stereo not drawn) [Example 253, 6,7-Dimethoxy-N-(5-methyl-2,3-dihydro-1H-inden-1-yl)-1-oxo-2-(pentan-3-yl)-1,2-dihydroisoquinoline-4-carboxamide]
< 100 nM	CCC(CC)n1cc(C(=O)NC2CCc3c(C)cccc32)c2cc(OC)c(OC)cc2c1=O (stereo not drawn) [Example 254, 6,7-Dimethoxy-N-(4-methyl-2,3-dihydro-1H-inden-1-yl)-1-oxo-2-(pentan-3-yl)-1,2-dihydroisoquinoline-4-carboxamide]
200 to 500 nM	CCc1nc(CNC(=O)c2cn(C(CC)CC)c(=O)c3cc(OC)c(OC)cc23)cs1 [Example 255, N-((2-Ethylthiazol-4-yl)methyl)-6,7-dimethoxy-1-oxo-2-(pentan-3-yl)-1,2-dihydroisoquinoline-4-carboxamide]
100 to 200 nM	CCC(CC)n1cc(C(=O)NCc2cc(C)cs2)c2cc(OC)c(OC)cc2c1=O [Example 257, 6,7-Dimethoxy-N-((4-methylthiophen-2-yl)methyl)-1-oxo-2-(pentan-3-yl)-1,2-dihydroisoquinoline-4-carboxamide]
100 to 200 nM	CCC(CC)n1cc(C(=O)NCc2sccc2C)c2cc(OC)c(OC)cc2c1=O [Example 258, 6,7-Dimethoxy-N-((3-methylthiophen-2-yl)methyl)-1-oxo-2-(pentan-3-yl)-1,2-dihydroisoquinoline-4-carboxamide]
200 to 500 nM	CCC(CC)n1cc(C(=O)NCc2ncc(C)o2)c2cc(OC)c(OC)cc2c1=O [Example 259, 6,7-Dimethoxy-N-((5-methyloxazol-2-yl)methyl)-1-oxo-2-(pentan-3-yl)-1,2-dihydroisoquinoline-4-carboxamide]
100 to 200 nM	CCC(CC)n1cc(C(=O)NC2CCc3ccc(C)cc32)c2cc(OC)c(OC)cc2c1=O (stereo not drawn) [Example 260, 6,7-Dimethoxy-N-(6-methyl-2,3-dihydro-1H-inden-1-yl)-1-oxo-2-(pentan-3-yl)-1,2-dihydroisoquinoline-4-carboxamide]
